Among the test systems are ACHN; BT-549; CAKI-1; CCRF-CEM; COLO 205; DU-145; HCC 2998; HCT-116; HOP-62; HT-29; KM12; LOX IMVI; MDA-MB-435; MDA-N; NCI-H226; NCI-H522; NCI/ADR-RES; OVCAR-8; SK-OV-3; SW-620.
Assay in all cases: NCI tumour cell line growth inhibition, 48 h

Here are results for ten compounds from ChEMBL document CHEMBL1201862, “PubChem BioAssay data set” (2004).

Structures are written as SMILES.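 Results reflect a 48-hour exposure of cells in 96-well plates to compound at five concentrations. GI50: concentration for 50% inhibition of growth.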 The source made the active and inactive calls. No stated cut-off is given here; in the data, active = GI50 up to about 1.1 µM and inactive = higher.

Turning to `Cc1cc(-c2nc3cc(F)ccc3s2)ccc1NC(=O)C(C)N` (stereo not given), the GI50 in the experiment on ACHN was 3.73 µM (inactive); with BT-549, 4.24 µM (inactive); in the experiment on CAKI-1, 3.28 µM (inactive); in the experiment on CCRF-CEM, 0.64 µM (active); in the experiment on COLO 205 it was 9.23 µM (inactive); in the experiment on DU-145, 4.42 µM (inactive). For the same compound, the GI50 in the experiment on HCC 2998 is 0.097 µM (active); with HCT-116 it was 3.29 µM (inactive); in the experiment with HOP-62, 3.97 µM (inactive); in the experiment on HT-29 it was 4.12 µM (inactive); with KM12, 3.94 µM (inactive); in the experiment on LOX IMVI, 4.42 µM (inactive). Further, the GI50 is 4.81 µM (inactive) with MDA-MB-435; 4.21 µM (inactive) in the experiment with MDA-N; > 25 µM (inactive) in the experiment with NCI-H226; 4.09 µM (inactive) with NCI-H522; 4.79 µM (inactive) in the experiment with NCI/ADR-RES; 4.54 µM (inactive) with OVCAR-8. Besides, the GI50 in the experiment on SK-OV-3 is 4.1 µM (inactive); in the experiment on SW-620 it was 4.62 µM (inactive).
On to `O=C(COC(c1ccc(F)cc1)c1ccc(F)cc1)N1CCN(CCCc2ccccc2)CC1`, for which the GI50 is 3.52 µM (inactive) with ACHN; 3.02 µM (inactive) with BT-549; 2.05 µM (inactive) in the experiment with CAKI-1; 7.62 µM (inactive) in the experiment with CCRF-CEM; 1.79 µM (inactive) in the experiment on COLO 205; 4.44 µM (inactive) in the experiment with DU-145. In addition, the GI50 in the experiment on HCC 2998 was 3.59 µM (inactive); in the experiment on HCT-116 it was 2.88 µM (inactive); with HOP-62, 6.52 µM (inactive); in the experiment with HT-29, 3.17 µM (inactive); with KM12, 4.06 µM (inactive); in the experiment on LOX IMVI it was 4.91 µM (inactive). Also, the GI50 with MDA-MB-435 is 3.67 µM (inactive); with MDA-N it was 3.74 µM (inactive); in the experiment with NCI-H226, 3.01 µM (inactive); with NCI-H522, 4.4 µM (inactive); with NCI/ADR-RES, 2.72 µM (inactive); in the experiment on OVCAR-8, 3.54 µM (inactive). In addition, the GI50 in the experiment with SK-OV-3 was 6.97 µM (inactive); with SW-620 it was 5.15 µM (inactive).
As for `COc1ccc2cc(/C=N\NC(=O)Nc3ccc([N+](=O)[O-])cc3)ccc2c1`, the GI50 with ACHN was 13.9 µM (inactive); with BT-549 it was 12.7 µM (inactive); with CAKI-1, 13.5 µM (inactive); with CCRF-CEM it was > 10 µM (inactive); in the experiment on COLO 205 it was 13.1 µM (inactive); with DU-145, 7.41 µM (inactive). Moreover, the GI50 was 14.2 µM (inactive) in the experiment with HCC 2998; 11.6 µM (inactive) with HCT-116; 14.8 µM (inactive) with HOP-62; 11.5 µM (inactive) in the experiment with HT-29; 11.3 µM (inactive) in the experiment on KM12; 12 µM (inactive) in the experiment with LOX IMVI. The GI50 in the experiment with MDA-MB-435 was 14.1 µM (inactive); in the experiment with MDA-N, 13 µM (inactive); in the experiment with NCI-H226, > 10 µM (inactive); with NCI-H522, 13.5 µM (inactive); in the experiment with NCI/ADR-RES, 13.6 µM (inactive); in the experiment with OVCAR-8 it was 11.7 µM (inactive). The figures for the GI50 with SK-OV-3 and with SW-620 were 11.9 µM (inactive) and 17.5 µM (inactive), respectively.
For `O=C1C(Cl)=C(N2CCC[C@@H]2CO)C(=O)c2c(O)ccc(O)c21`, the GI50 is 1.6 µM (inactive) in the experiment with ACHN; 1.9 µM (inactive) in the experiment on BT-549; 1.58 µM (inactive) with CAKI-1; 0.244 µM (active) with CCRF-CEM; 1.55 µM (inactive) in the experiment with COLO 205; 1.84 µM (inactive) with DU-145. For the same compound, the GI50 was 2.02 µM (inactive) with HCC 2998; 1.44 µM (inactive) with HCT-116; 1.58 µM (inactive) in the experiment on HOP-62; 2.15 µM (inactive) in the experiment on HT-29; 1.75 µM (inactive) in the experiment on KM12; 1.47 µM (inactive) in the experiment with LOX IMVI. Moreover, the GI50 is 1.51 µM (inactive) in the experiment with MDA-MB-435; 1.54 µM (inactive) in the experiment with MDA-N; 1.71 µM (inactive) in the experiment with NCI-H226; 1.12 µM (active) in the experiment with NCI-H522; 2.41 µM (inactive) in the experiment with NCI/ADR-RES; 2 µM (inactive) in the experiment on OVCAR-8. In addition, the results for the GI50 in the experiment on SK-OV-3 and in the experiment on SW-620 were 2.9 µM (inactive) and 1.4 µM (inactive), respectively.
`O=c1c2ccccc2oc2c1ccc1ncccc12`: the GI50 in the experiment on ACHN was 5.55 µM (inactive); with BT-549 it was 17.8 µM (inactive); in the experiment with CAKI-1 it was 3.34 µM (inactive); in the experiment on CCRF-CEM, 11.1 µM (inactive); in the experiment on COLO 205, 17.3 µM (inactive); in the experiment on DU-145, 4.69 µM (inactive). Also, the GI50 with HCC 2998 was 30.4 µM (inactive); in the experiment on HCT-116, 6.34 µM (inactive); in the experiment on HOP-62 it was 15 µM (inactive); in the experiment on HT-29, 14.5 µM (inactive); with KM12, 24.2 µM (inactive); in the experiment on LOX IMVI it was 5.24 µM (inactive). Also, the GI50 is 25.7 µM (inactive) in the experiment with MDA-MB-435; 20 µM (inactive) in the experiment with MDA-N; 13.3 µM (inactive) with NCI-H226; 12.7 µM (inactive) in the experiment on NCI-H522; 10.4 µM (inactive) in the experiment on NCI/ADR-RES; 11.8 µM (inactive) in the experiment on OVCAR-8. Moreover, the GI50 in the experiment with SK-OV-3 is 6.38 µM (inactive); with SW-620, 10.7 µM (inactive).
With `O=C(CCCCCCC(=O)Nc1cccnc1)NO` [PYROXAMIDE], the GI50 with ACHN was 15.7 µM (inactive); in the experiment on BT-549, > 100 µM (inactive); in the experiment on CAKI-1 it was 16.6 µM (inactive); in the experiment on CCRF-CEM, 1.31 µM (inactive); in the experiment with COLO 205, 2.77 µM (inactive); in the experiment on DU-145 it was 3.71 µM (inactive). Moreover, the GI50 in the experiment with HCC 2998 is 4.61 µM (inactive); in the experiment on HCT-116 it was 3.54 µM (inactive); in the experiment on HOP-62 it was 7.16 µM (inactive); in the experiment on HT-29, 3.14 µM (inactive); with KM12, 2.93 µM (inactive); with LOX IMVI, 7.29 µM (inactive). Besides, the GI50 was 2.79 µM (inactive) in the experiment with MDA-MB-435; 2.62 µM (inactive) with MDA-N; 36.3 µM (inactive) in the experiment with NCI-H226; 1.26 µM (inactive) with NCI-H522; 1.81 µM (inactive) in the experiment on NCI/ADR-RES; 1.78 µM (inactive) in the experiment on OVCAR-8. For the same compound, the GI50 in the experiment on SK-OV-3 was 5.19 µM (inactive); with SW-620 it was 3.4 µM (inactive).
In the case of `COC(=O)NC(Nc1ccc(Cl)cc1Cl)(C(F)(F)F)C(F)(F)F`, the GI50 in the experiment with ACHN was 10.5 µM (inactive); in the experiment on BT-549 it was 17.1 µM (inactive); in the experiment with CAKI-1 it was 24.5 µM (inactive); in the experiment on CCRF-CEM it was 28.5 µM (inactive); in the experiment on COLO 205, 28.2 µM (inactive); with DU-145, 35.3 µM (inactive). Besides, the GI50 is 45.7 µM (inactive) in the experiment with HCC 2998; 64.7 µM (inactive) in the experiment on HCT-116; > 100 µM (inactive) with HOP-62; > 100 µM (inactive) in the experiment with HT-29; 14 µM (inactive) with KM12; 40.6 µM (inactive) with LOX IMVI. For the same compound, the GI50 in the experiment with MDA-MB-435 was 25.1 µM (inactive); with MDA-N it was 34.7 µM (inactive); in the experiment with NCI-H226 it was > 100 µM (inactive); with NCI-H522, 37.1 µM (inactive); with NCI/ADR-RES, 86.5 µM (inactive); in the experiment with OVCAR-8 it was 70.8 µM (inactive). Further, the GI50 was 73.6 µM (inactive) in the experiment with SK-OV-3 and 30.9 µM (inactive) with SW-620.
Consider `O=C(O)[C@@H]1C[C@@H](O)CN1C(=O)OCc1ccccc1`, for which the GI50 in the experiment with ACHN, in the experiment on BT-549, with CAKI-1, in the experiment with CCRF-CEM, in the experiment with COLO 205 and in the experiment with DU-145 was > 100 µM (inactive) each time. For the same compound, the GI50 in the experiment with HCC 2998, in the experiment on HCT-116, in the experiment on HOP-62, with HT-29, with KM12 and in the experiment on LOX IMVI was > 100 µM (inactive) in each case. Moreover, the GI50 in the experiment on MDA-MB-435, in the experiment on MDA-N, in the experiment on NCI-H226, with NCI-H522, with NCI/ADR-RES and in the experiment on OVCAR-8 was > 100 µM (inactive) throughout. Further, the GI50 with SK-OV-3 and in the experiment with SW-620 was > 100 µM (inactive) throughout.
As for `COc1c(OC(C)C)c(OC(C)C)c2oc(=O)n3c2c1C(c1ccccc1-n1c(C)ccc1C)C=C3` (stereo not given), the GI50 was 48.8 µM (inactive) with ACHN; > 100 µM (inactive) in the experiment with BT-549; > 100 µM (inactive) with CAKI-1; 71.9 µM (inactive) with CCRF-CEM; > 100 µM (inactive) in the experiment with COLO 205; 60.4 µM (inactive) in the experiment on DU-145. For the same compound, the GI50 is 37.9 µM (inactive) in the experiment with HCC 2998; 16.7 µM (inactive) with HCT-116; 30.5 µM (inactive) in the experiment on HOP-62; 12.6 µM (inactive) in the experiment with HT-29; 22.9 µM (inactive) in the experiment with KM12; 21.5 µM (inactive) in the experiment with LOX IMVI. The GI50 is 35.2 µM (inactive) in the experiment with MDA-MB-435; 29.2 µM (inactive) in the experiment with MDA-N; 17.1 µM (inactive) in the experiment with NCI-H226; 26.7 µM (inactive) with NCI-H522; 33.6 µM (inactive) in the experiment on NCI/ADR-RES; 35.3 µM (inactive) in the experiment on OVCAR-8. Also, the figures for the GI50 in the experiment on SK-OV-3 and in the experiment with SW-620 were > 100 µM (inactive) and 32.5 µM (inactive), respectively.
For `OC(C#Cc1ccccc1)(c1ccccc1)c1ccccc1`, the GI50 in the experiment on ACHN is 39 µM (inactive); with BT-549, 51.1 µM (inactive); with CAKI-1, 22.4 µM (inactive); in the experiment with CCRF-CEM it was 11.6 µM (inactive); with COLO 205, 50.7 µM (inactive); in the experiment on DU-145 it was 30.1 µM (inactive). Besides, the GI50 is 50.6 µM (inactive) in the experiment on HCC 2998; > 100 µM (inactive) in the experiment on HCT-116; > 100 µM (inactive) in the experiment with HOP-62; 26.7 µM (inactive) in the experiment on HT-29; 28 µM (inactive) in the experiment on KM12; 19 µM (inactive) in the experiment with LOX IMVI. Further, the GI50 in the experiment with MDA-MB-435 was 24.3 µM (inactive); in the experiment on MDA-N it was 23.4 µM (inactive); in the experiment with NCI-H226, 26.2 µM (inactive); in the experiment on NCI-H522 it was 30.9 µM (inactive); in the experiment on NCI/ADR-RES, 36.6 µM (inactive); with OVCAR-8, 63.5 µM (inactive). Also, the GI50 in the experiment with SK-OV-3 is > 100 µM (inactive); in the experiment on SW-620, 28.4 µM (inactive).
